Experiments:
[1] = test system: primary human corneal endothelial cells (HCEnCs); assay: HCEnCs count upon detachment at confluency for progressive passages; format: cell-based; settings: CHIR 0.1-9 μM vs relative untreated control
Description: […] were cultured between 31 and 39° C. in 4-10% CO2, changing the growth medium every other day. The growth medium can be OptiMEM-I, MEM, F12, Human Endothelial SFM, 2-10% HyClone fetal bovine serum (FBS), 2-10 ng/ml epidermal growth factor (EGF), 5-50 μg/mL ascorbic acid, 40-300 mg/L calcium chloride, 0.01-0.2% chondroitin sulphate, and penicillin/streptomycin. Upon confluency, […] were rinsed in DPBS and passaged at a ratio of 1:2 or 1:3 with Trypsin or other proteolytic enzymes for 10-30 min at 31-39° C. in 4-10% CO2. Sub-confluent cultures were harvested approximately 1 day after plating.

[2] = test system: primary human corneal endothelial cells (HCEnCs); assay: Immunofluorescence of ZO-1 and α-SMA markers in primary HCEnCs; format: cell-based
Description: (§1) HCEnCs were cultured between 31 and 39° C. in 4-10% CO2, changing the growth medium every other day. The growth medium can be OptiMEM-I, MEM, F12, Human Endothelial SFM, 2-10% HyClone fetal bovine serum (FBS), 2-10 ng/ml epidermal growth factor (EGF), 5-50 μg/mL ascorbic acid, 40-300 mg/L calcium chloride, 0.01-0.2% chondroitin sulphate, and penicillin/streptomycin. Upon confluency, HCEnCs were rinsed in DPBS and passaged at a ratio of 1:2 or 1:3 with Trypsin or other proteolytic enzymes for 10-30 min at 31-39° C. in 4-10% CO2. Sub-confluent cultures were harvested approximately 1 day after plating.
(§2) Before or whenever primary HCEnCs encountered a morphological variation, the GSK inhibitor CHIR99021 (also defined as 6-[[2-[[4-(2,4-Dichlorophenyl)-5-(5-methyl-1H-imidazol-2-yl)-2-pyrimidinyl]amino]ethyl]amino]-3-pyridinecarbonitrile) was prepared and added to the culture media at a concentration range of 0.1-10 μM. Multiple solvents and methods have been used to dissolve CHIR stock solution. Ultrasonic were applied for CHIR dilutions in sodium carboxymethyl cellulose (CMC-Na) in saline water and 20% Sulfobutylether-β-Cyclodextrin (SBE-β-CD), adjusted to pH 3-6, with 1 N acetic acid. CHIR can be also diluted in dimethyl sulfoxide (DMSO) at 70-100% (v/v), with a solution composed of 10% DMSO 40% PEG300 5% Tween-80 in saline water or composed of 10% DMSO and 20% SBE-β-CD in saline water. Once obtained a clear solution, the stock solution was aliquoted and stored at-20/−80° C. until use.
(§3) Immunofluorescence staining was performed on primary cultured HCEnCs after fixation in 3% PFA 15 min at room temperature (RT). Triton X-100 used at 1% for 10 min at RT allowed cell permeabilization and a solution of bovine serum albumin (BSA) 2%, FBS 2%, Triton X-100 at 0.01% in PBS was used for 30 min at 37° C. to block the non-specific binding sites. Primary and secondary antibodies were incubated for 1 h at 37° C. while nuclei were counterstained with DAPI at RT for 5 minutes before mounting the glass coverslips using amounting medium such as DAKO. Primary antibodies used herein are listed in Table 2 while secondary antibodies used are: Alexa Fluor 488 anti-rabbit, 1:2,000, and Alexa Fluor 568 anti-mouse, 1:1,000 (Thermo Fisher Scientific). Images were obtained with a confocal microscope (LSM900 Airyscan—Carl Zeiss).

[3] = test system: primary human corneal endothelial cells (HCEnCs); assay: Phase-contrast morphology of primary HCEnCs cultures treated with CHIR; format: cell-based
Description: Human corneas tissues (obtained after informed consent to the eye bank and the use was approved by the ethical committee) were preserved in media for tissue preservation as for example Eusol, OptiSOL or others and used within approximately 15 days from death; a list of detail for some corneas used and relative experiments is shown in Table 1. HCEnCs were isolated through Descemet's stripping and digestion with Collagenase A (Roche) for 1-16 h at 30-39° C. After 5-10 minutes in Trypsin or other proteolytic enzymes at 37° C., HCEnCs were pelleted at 1,200 rpm for 3 min and plated in FNC Coating mix treated wells.
as §1, §2

[4] = test system: primary human corneal endothelial cells (HCEnCs); assay: Cell cycle analysis by FACS (propidium iodide) of sub-confluent HCEnCs; format: cell-based; settings: sub-confluent HCEnCs P5-P6-P8, CHIR 0.1-9 μM vs untreated
Description: The cell cycle was studied by staining sub-confluent cultures of […] with Propidium Iodide (PI; Sigma-Aldrich). […] from cell culture were washed with DPBS and incubated for 1 h at 4° C. in the dark with 250 μL of a PBS solution composed by PI 50 μg/mL, Triton X-100 (Bio-Rad, USA) at 0.1%. Cells were then analysed using BD FACSCanto II (BD BIOSCIENCES; San Jose, CA USA). For each sample, 20,000 events were considered for the analysis to ensure statistical relevance and results were analysed with a ModFit 3.0 software.

[5] = test system: primary human corneal endothelial cells (HCEnCs); assay: Immunofluorescence of ki67 in sub-confluent HCEnCs; format: cell-based
Description: as §3, with “HCEnCs” left out, “Airyscan-Carl” for “Airyscan—Carl”

[6] = test system: corneal endothelial derived cell line, B4G12; settings: B4G12 cell line (Wang et al., 2022); cited from earlier work
[7] = P1, CHIR at 0.1-9 μM, vs untreated (ctr)
[8] = P1, CHIR at a concentration >10 μM

Cc1cnc(-c2cnc(NCCNc3ccc(C#N)cn3)nc2-c2ccc(Cl)cc2Cl)[nH]1 [CHIR, 6-[[2-[[4-(2,4-Dichlorophenyl)-5-(5-methyl-1H-imidazol-2-yl)-2-pyrimidinyl]amino]ethyl]amino]-3-pyridinecarbonitrile]
number of HCEnCs at confluency for each passage [1]: constantly lower | percentage of α-SMA expressing cells ([2]; P1, CHIR 0.1-9 μM, untreated approx. 40%): ~17% | ZO-1 expression [2, 7]: restored sealed ZO-1 pattern of expression | α-SMA expression [2, 7]: reduced levels of α-SMA | ZO-1 expression [2, 8]: disappearance of ZO-1 expression | endothelial to mesenchymal transition (EnMT) [2, 8]: accelerated the process of endothelial to mesenchymal transition | α-SMA expression [2, 8]: highly expressed in every cell | ZO-1 expression ([2]; P3, CHIR 0.1-9 μM): restores ZO-1 pattern of tight junctions | α-SMA expression ([2]; P3, CHIR 0.1-9 μM): drastically reduces expression of α-SMA | reversion of elongated morphology ([3]; CHIR 0.1-9 μM added at a later passage, P6 confluence): able to reverse the elongated morphology | reversion of cell phenotype / morphology ([3]; CHIR 0.1-9 μM applied to HCEnCs already elongated in culture (P3)): restoring a polygonal morphology | reversion of elongated phenotype ([3]; CHIR 0.1-9 μM, progressive passages, at least up to P8): reversing the elongated phenotype | HCEnCs morphology ([3]; P1, CHIR at 0.1-9 μM, vs untreated HCEnCs (ctr)): restored the polygonal morphology | HCEnCs morphology ([3]; P1, CHIR at concentrations >10 μM, vs untreated cells): exacerbated elongated morphology | HCEnCs morphology ([3]; P3, CHIR 0.1-9 μM vs untreated (ctr)): untreated cells (ctr) appeared more elongated than CHIR treated HCEnCs | percentage of cells at G2/M [4]: reduced the percentage of cells at G2/M | percentage of cells in G0/G1 phase of cell cycle [4]: enhanced the percentage of cells in G0/G1 phase | cell proliferation rate ([5]; primary HCEnCs, evaluated with different assays (FACS, count, ki67)): does not enhance cell proliferation rate | ki67 protein expressing cells ([5]; sub-confluent HCEnCs P5, Strain 3, CHIR 0.1-9 μM vs untreated): equal | ki67 protein expressing cells ([5]; sub-confluent HCEnCs P5, Strain 4, p<0.05, CHIR 0.1-9 μM vs untreated): significant reduction | cell proliferation [6]: concomitant enhancement in cell proliferation | mesenchymal conversion [6]: prevent mesenchymal conversion (but not to reverse it)
